Measurements from patent publication US10787452B2 (Vertex Pharmaceuticals Incorporated, priority 2012, dated 2020).

test system: HCT116 colorectal cancer cells; assay: Cisplatin sensitization assay (96 h cell viability MTS); assay type: cell-based; details: 96 h MTS, compound plus Cisplatin;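 further: compound concentration needed to lower the Cisplatin-alone IC50 by a set fold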
Method in brief: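 Full-matrix combination: compound × cisplatin, 2-fold dilutions from 10 μM top final, co-added; 96 h, 37° C, 5% CO2; MTS read-out after 1 h.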

SMILES | Cisplatin Sensitization Assay
CC1(C)CN(c2ccncc2NC(=O)c2c(N)nn3cc(F)cnc23)CCS1(=O)=O [I-N-252, 2-amino-N-(4-(2,2-dimethyl-1,1-dioxidothiomorpholino)pyridin-3-yl)-6-fluoropyrazolo[1,5-a]pyrimidine-3-carboxamide] | +++ (Compounds with a Cisplatin sensitization value of <0.02 μM are marked with “+++.”)
Nc1nn2cc(F)cnc2c1C(=O)Nc1cnccc1N1CCCC2(COC2)C1 [I-N-253, N-(4-(2-oxa-6-azaspiro[3.5]nonan-6-yl)pyridin-3-yl)-2-amino-6-fluoropyrazolo[1,5-a]pyrimidine-3-carboxamide] | +++ (Compounds with a Cisplatin sensitization value of <0.02 μM are marked with “+++.”)
Nc1nn2cc(F)cnc2c1C(=O)Nc1cnccc1N1CCC2(CCNC2)CC1 [I-N-255, N-(4-(2,8-diazaspiro[4.5]decan-8-yl)pyridin-3-yl)-2-amino-6-fluoropyrazolo[1,5-a]pyrimidine-3-carboxamide] | ++ (Compounds with a Cisplatin sensitization value >0.02 μM but <0.2 μM are marked with “++.”)
Cc1nnc(N2CCN(c3ccncc3NC(=O)c3c(N)nn4cc(F)cnc34)CC2)o1 [I-N-256, 2-amino-6-fluoro-N-(4-(4-(5-methyl-1,3,4-oxadiazol-2-yl)piperazin-1-yl)pyridin-3-yl)pyrazolo[1,5-a]pyrimidine-3-carboxamide] | ++ (Compounds with a Cisplatin sensitization value >0.02 μM but <0.2 μM are marked with “++.”)
CC(=O)N1CCC2(CCN(c3ccncc3NC(=O)c3c(N)nn4cc(F)cnc34)CC2)C1 [I-N-257, N-(4-(2-acetyl-2,8-diazaspiro[4.5]decan-8-yl)pyridin-3-yl)-2-amino-6-fluoropyrazolo[1,5-a]pyrimidine-3-carboxamide] | +++ (Compounds with a Cisplatin sensitization value of <0.02 μM are marked with “+++.”)
Nc1nn2cc(F)cnc2c1C(=O)Nc1cnccc1N1CCN2C(=O)CC[C@@H]2C1 [I-N-258, (R)-2-amino-6-fluoro-N-(4-(6-oxohexahydropyrrolo[1,2-a]pyrazin-2(1H)-yl)pyridin-3-yl)pyrazolo[1,5-a]pyrimidine-3-carboxamide] | ++ (Compounds with a Cisplatin sensitization value >0.02 μM but <0.2 μM are marked with “++.”)
Cn1ccc2cncc(NC(=O)c3c(N)nn4cc(F)cnc34)c21 [I-N-259, 2-amino-6-fluoro-N-(1-methyl-1H-pyrrolo[3,2-c]pyridin-7-yl)pyrazolo[1,5-a]pyrimidine-3-carboxamide] | + (Compounds with a Cisplatin sensitization value >0.2 μM but <5 μM are marked with “+.”)
Cc1nonc1N1CCN(c2ccncc2NC(=O)c2c(N)nn3cc(F)cnc23)CC1 [I-N-260, 2-amino-6-fluoro-N-(4-(4-(4-methyl-1,2,5-oxadiazol-3-yl)piperazin-1-yl)pyridin-3-yl)pyrazolo[1,5-a]pyrimidine-3-carboxamide] | +++ (Compounds with a Cisplatin sensitization value of <0.02 μM are marked with “+++.”)
COC(=O)N1CCN(c2c(F)cncc2NC(=O)c2c(N)nn3cc(F)cnc23)CC1 [I-N-261, methyl-4-(3-(2-amino-6-fluoropyrazolo[1,5-a]pyrimidine-3-carboxamido)-5-fluoropyridin-4-yl)piperazine-1-carboxylate] | +++ (Compounds with a Cisplatin sensitization value of <0.02 μM are marked with “+++.”)
CC(=O)N1CCCC12CCN(c1ccncc1NC(=O)c1c(N)nn3cc(F)cnc13)CC2 [I-N-262, N-(4-(1-acetyl-1,8-diazaspiro[4.5]decan-8-yl)pyridin-3-yl)-2-amino-6-fluoropyrazolo[1,5-a]pyrimidine-3-carboxamide] | +++ (Compounds with a Cisplatin sensitization value of <0.02 μM are marked with “+++.”)
Cc1nncn1-c1ccncc1NC(=O)c1c(N)nn2cc(F)cnc12 [I-N-263, 2-amino-6-fluoro-N-(4-(3-methyl-4H-1,2,4-triazol-4-yl)pyridin-3-yl)pyrazolo[1,5-a]pyrimidine-3-carboxamide] | + (Compounds with a Cisplatin sensitization value >0.2 μM but <5 μM are marked with “+.”)
Nc1nn2cc(F)cnc2c1C(=O)Nc1cnccc1N1CCCCCC1 [I-N-264, 2-amino-N-(4-(azepan-1-yl)pyridin-3-yl)-6-fluoropyrazolo[1,5-a]pyrimidine-3-carboxamide] | + (Compounds with a Cisplatin sensitization value >0.2 μM but <5 μM are marked with “+.”)
Cc1nnc(C2CCN(c3ccncc3NC(=O)c3c(N)nn4cc(F)cnc34)CC2)o1 [I-N-265, 2-amino-6-fluoro-N-(4-(4-(5-methyl-1,3,4-oxadiazol-2-yl)piperidin-1-yl)pyridin-3-yl)pyrazolo[1,5-a]pyrimidine-3-carboxamide] | ++ (Compounds with a Cisplatin sensitization value >0.02 μM but <0.2 μM are marked with “++.”)
COC1CCN(c2ccncc2NC(=O)c2c(N)nn3cc(F)cnc23)CC1 [I-N-266, 2-amino-6-fluoro-N-(4-(4-methoxypiperidin-1-yl)pyridin-3-yl)pyrazolo[1,5-a]pyrimidine-3-carboxamide] | +++ (Compounds with a Cisplatin sensitization value of <0.02 μM are marked with “+++.”)
CN(C)CC1CCN(c2ccncc2NC(=O)c2c(N)nn3cc(F)cnc23)CC1 [I-N-267, 2-amino-N-(4-(4-((dimethylamino)methyl)piperidin-1-yl)pyridin-3-yl)-6-fluoropyrazolo[1,5-a]pyrimidine-3-carboxamide] | +++ (Compounds with a Cisplatin sensitization value of <0.02 μM are marked with “+++.”)
Nc1nn2cc(F)cnc2c1C(=O)Nc1cnccc1N1CCC(c2nnco2)CC1 [I-N-268, N-(4-(4-(1,3,4-oxadiazol-2-yl)piperidin-1-yl)pyridin-3-yl)-2-amino-6-fluoropyrazolo[1,5-a]pyrimidine-3-carboxamide] | +++ (Compounds with a Cisplatin sensitization value of <0.02 μM are marked with “+++.”)
Cc1ncn(-c2ccncc2NC(=O)c2c(N)nn3cc(F)cnc23)c1C [I-N-269, 2-amino-N-(4-(4,5-dimethyl-1H-imidazol-1-yl)pyridin-3-yl)-6-fluoropyrazolo[1,5-a]pyrimidine-3-carboxamide] | ++ (Compounds with a Cisplatin sensitization value >0.02 μM but <0.2 μM are marked with “++.”)
Nc1nn2cc(F)cnc2c1C(=O)Nc1cncc(F)c1N1CCCCC1 [I-N-270, 2-amino-6-fluoro-N-(5-fluoro-4-(piperidin-1-yl)pyridin-3-yl)pyrazolo[1,5-a]pyrimidine-3-carboxamide] | +++ (Compounds with a Cisplatin sensitization value of <0.02 μM are marked with “+++.”)
Nc1nn2cc(F)cnc2c1C(=O)Nc1cnccc1N1CCC(S(=O)(=O)N2CCC2)CC1 [I-N-271, 2-amino-N-(4-(4-(azetidin-1-ylsulfonyl)piperidin-1-yl)pyridin-3-yl)-6-fluoropyrazolo[1,5-a]pyrimidine-3-carboxamide] | +++ (Compounds with a Cisplatin sensitization value of <0.02 μM are marked with “+++.”)
